# Laboratory results as given in patent US8758822B2, “Method for manufacturing uniform size polymeric nanoparticles containing poorly soluble drugs” (Korea Research Institute of Bioscience and Biotechnology, priority 2008, dated 2014).
# Tests used:
# [1] = tested on: carbon tetrachloride-induced liver damage; experiment: Treatment effects on carbon tetrachloride-induced liver damage; format: in vivo, Sprague Dawley rats; settings: blood serum after 4 weeks; for Relative concentration of ALT against the control group: 25 mg/kg oral; for ALT* (average ALT concentration ± deviation): 25 mg/kg oral once a day, 6 times a week, CCl4 0.75 ml/kg i.p. 2 times a week
# Procedure: 6-week old 20 male Sprague Dawley rats (Orient Bio, Korea) were weighed and distributed to 4 groups 5 to each group to be equal in average weight and degree of dispersion. Under the condition of 23±2′C of temperature and 55±5% of relative humidity in an animal facility, 0.75 ml/kg of 50% solution (v/v) (Sigma-Aldrich, USA) of liver toxic carbon tetrachloride (CCl4) mixed with corn oil was injected each time into the peritoneal cavity 2 times a week (Mondays & Fridays) for 4 weeks.
# (§1) 1. For Group 1 (control group), 0.75 ml/kg of carbon tetrachloride was injected each time into the peritoneal cavity 2 times a week (Mondays & Fridays) for 4 weeks, and no additional compounds was administered any more.
# (§2) 2. For Group 2, in addition to the 0.75 ml/kg of carbon tetrachloride injection each time into the peritoneal cavity 2 times a week (Mondays & Fridays) for 4 weeks, BDD equivalent to 25 mg per 1 kg of body weight of each rat, which was suspended in 1% (w/v) of CMC (carboxylmethyl cellulose sodium salt, Sigma-Aldrich, USA) solution were orally administered each time once a day, 6 times a week for 4 weeks.
# as §2, with “3.” for “2.”, “3,” for “2,”, “BDD-containing polymeric nanoparticles of the present invention prepared via Example 2” for “BDD”, “were” for “was”, “(Carboxylmethyl” for “(carboxylmethyl”
# 4. For Group 4 (no treatment group), no carbon tetrachloride and compounds were administered.
# In detail, after 4 weeks, each animal was anesthetized by injecting 4% of 4 ml-chloral hydrate (BDH Laboratory Supplies, U.K.) Into the peritoneal cavity, and blood was taken out from the heart and left at a room temperature for an hour. After then, blood serum was obtained by spinning down at 16000 rpm for 20 minutes, and ALT and AST concentrations were measured by an automatic blood biochemistry analyzer (HITACHI 7080, HITACHI, Japan) using an ALT and AST test reagents (TA-Test Wako; WAKO Pure Chemical, Japan).
# [2] = taken as a form of tablet; cited from earlier work
# [3] = tested on: carbon tetrachloride-induced liver damage; settings: administered 2 weeks, CCl4 continued to 3 and 4 weeks; FIGS. 6 and 7
# Procedure: as §1
# [4] = tested on: ICR rats; experiment: Acute toxicity test; format: in vivo; settings: for Fatality rate / No. of dead rats: after 1 week
# Description: Acute toxicity was investigated upon administering the PLGA-BDD nanoparticles of the present invention prepared via Example 2.
smiles,measurement,setting,value
"COC(=O)c1cc(OC)c2c(c1-c1c(C(=O)OC)cc(OC)c3c1OCO3)OCO2 [BDD, biphenyl-dimethyl-dicarboxylate]",Relative concentration of ALT against the control group,[1]; Table 2,42%
same,ALT* (average ALT concentration ± deviation),[1]; Table 2,229.6 ± 99.7 SF IU/l
same,Relative concentration of ALT against the control group,[1]; Table 3,52.9%
same,ALT* (average ALT concentration ± deviation),[1]; Table 3,479.7 ± 144.8 SF IU/l
same,bioavailability,[2],20-30%
same,inhibiting effect on increase of carbon tetrachloride-induced ALT and AST concentration over time,[3],rebounded after 4 weeks
same,Fatality rate,[4]; 0.005 g per kg oral,0%
same,No. of dead rats,[4]; 0.005 g per kg oral,0
same,Fatality rate,[4]; 0.1 g per kg oral,0%
same,No. of dead rats,[4]; 0.1 g per kg oral,0
same,Fatality rate,[4]; 0.25 g per kg oral,0%
same,No. of dead rats,[4]; 0.25 g per kg oral,0
same,Fatality rate,[4]; 0.5 g per kg oral,0%
same,No. of dead rats,[4]; 0.5 g per kg oral,0
same,Fatality rate,[4]; 1 g per kg oral,0%
same,No. of dead rats,[4]; 1 g per kg oral,0
same,LD50,[4]; oral,>2 g/kg
